Assay results: ChEMBL document CHEMBL4118066, “QSAR-driven design, synthesis and discovery of potent chalcone derivatives with antitubercular activity” (Eur J Med Chem, 2017)
Values after ≈ are worked out from the molar mass of the structure shown.

What was measured:
[1] = in vitro; conditions: monkey
Description: Selectivity index, ratio of IC50 for African green monkey Vero cells to MIC90 for Mycobacterium tuberculosis H37Rv ATCC 27294 under normoxic condition

[2] = test system: Mycobacteroides abscessus; experiment: Antimycobacterial activity against Mycobacterium abscessus ATCC 19977 after 7 days under normoxic condition by microplate Alamar blue assay; type: functional; conditions: ATCC 19977, 168 h
[3] = test system: Mycobacterium avium; experiment: Antimycobacterial activity against Mycobacterium avium ATCC 15769 after 7 days under normoxic condition by microplate Alamar blue assay; type: functional; conditions: ATCC 15769, 168 h
[4] = test system: Mycobacteroides chelonae; experiment: Antimycobacterial activity against Mycobacterium chelonae ATCC 35752 after 7 days under normoxic condition by microplate Alamar blue assay; type: functional; conditions: ATCC 35752, 168 h
[5] = test system: Escherichia coli; experiment: Antibacterial activity against Escherichia coli ATCC 25922 after 16 to 20 hrs; type: functional
[6] = test system: Mycobacterium kansasii; experiment: Antimycobacterial activity against Mycobacterium kansasii ATCC 12478 after 7 days under normoxic condition by microplate Alamar blue assay; type: functional; conditions: ATCC 12478, 168 h
[7] = test system: Mycobacterium marinum; experiment: Antimycobacterial activity against Mycobacterium marinum ATCC 927 after 7 days under normoxic condition by microplate Alamar blue assay; type: functional; conditions: ATCC 927, 168 h
[8] = test system: Staphylococcus aureus; experiment: Antibacterial activity against Staphylococcus aureus ATCC 29213 after 16 to 20 hrs; type: functional
[9] = test system: Candida albicans; experiment: Antifungal activity against Candida albicans ATCC 90028 after 36 to 48 hrs; type: functional
[10] = test system: Mycobacterium tuberculosis; experiment: Antitubercular activity against Mycobacterium tuberculosis H37Rv ATCC 27294 treated for 10 days under hypoxic condition followed by 28 hrs of normoxic recovery; type: functional
[11] = test system: Mycolicibacterium smegmatis; experiment: Antimycobacterial activity against Mycobacterium smegmatis ATCC MC2155 after 7 days under normoxic condition by microplate Alamar blue assay; type: functional; conditions: str. MC2 155, 168 h
[12] = test system: Mycobacterium tuberculosis; experiment: microbe, parasite or virus in culture; type: functional; conditions: H37Rv ATCC 27294, 168 h
Description: Antitubercular activity against Mycobacterium tuberculosis H37Rv ATCC 27294 after 7 days under normoxic condition by microplate Alamar blue assay

| Compound | selectivity ratio ([1]; Vero cells) | MIC90 [2] [µM] | MIC90 [3] [µM] | MIC90 [4] [µM] | MIC90 [5] [µM] | MIC90 [6] [µM] | MIC90 [7] [µM] | MIC90 [8] [µM] | MIC90 [9] [µM] | MIC90 [10] [µM] | MIC90 [11] [µM] | MIC90 [12] [µM] | selectivity ratio ([1]; vero) |
| --- | --- | --- | --- | --- | --- | --- | --- | --- | --- | --- | --- | --- | --- |
| CCCCc1ccc(C(=O)/C=C/c2ccc([N+](=O)[O-])s2)cc1 | 81 | > 10 | 2.14 (≈ 0.675 µg/mL) | > 10 | > 10 | 1.73 (≈ 0.546 µg/mL) | > 10 | > 10 | > 10 | 5.56 (≈ 1.75 µg/mL) | > 10 | 0.54 (≈ 0.17 µg/mL) | – |
| O=C(/C=C/c1ccc([N+](=O)[O-])o1)c1ccc(N2CCCCC2)cc1 | – | – | – | – | > 10 | – | – | > 10 | > 10 | 10.9 (≈ 3.56 µg/mL) | > 10 | 3.42 (≈ 1.12 µg/mL) | – |
| CC(C)(C)c1ccc(C(=O)/C=C/c2ccco2)cc1 | – | > 10 | > 10 | > 10 | > 10 | > 10 | > 10 | > 10 | > 10 | > 10 | > 10 | > 10 | – |
| CC(C)(C)c1ccc(C(=O)/C=C/c2ccc[nH]2)cc1 | – | > 10 | > 10 | > 10 | > 10 | > 10 | > 10 | > 10 | > 10 | > 10 | > 10 | > 10 | – |
| O=C(/C=C/c1ccc([N+](=O)[O-])cc1)c1ccc(N2CCCCC2)cc1 | – | > 10 | > 10 | > 10 | > 10 | > 10 | > 10 | > 10 | > 10 | > 10 | > 10 | > 10 | – |
| NNC(=O)c1ccncc1 [ISONIAZID] | – | – | – | – | – | – | – | – | – | > 256 | > 10 | 0.41 (≈ 0.0562 µg/mL) | – |
| O=C(/C=C/c1ccco1)c1ccc(N2CCCCC2)cc1 | – | > 10 | > 10 | > 10 | > 10 | > 10 | > 10 | > 10 | > 10 | > 10 | > 10 | > 10 | – |
| O=C(/C=C/c1cccc([N+](=O)[O-])c1)c1ccc(N2CCCCC2)cc1 | – | > 10 | > 10 | > 10 | > 10 | > 10 | > 10 | > 10 | > 10 | > 10 | > 10 | > 10 | – |
| O=C(/C=C/c1ccc([N+](=O)[O-])o1)c1ccc(Br)cc1 | – | – | – | – | > 10 | – | – | 0.36 (≈ 0.116 µg/mL) | 4.93 (≈ 1.59 µg/mL) | 6.76 (≈ 2.18 µg/mL) | 7.12 (≈ 2.29 µg/mL) | 2.5 (≈ 0.805 µg/mL) | – |
| COc1ccc(/C=C/C(=O)c2ccc(-c3ccccc3)cc2)cc1 | – | > 10 | > 10 | > 10 | > 10 | > 10 | > 10 | 1.18 (≈ 0.371 µg/mL) | > 10 | > 10 | > 10 | > 10 | – |
| O=C(/C=C/c1ccc([N+](=O)[O-])o1)c1ccc(N2CCNCC2)cc1 | 359 | – | – | – | > 10 | – | – | > 10 | > 10 | 9.67 (≈ 3.17 µg/mL) | > 10 | 0.27 (≈ 0.0884 µg/mL) | – |
| O=C(/C=C/c1ccc([N+](=O)[O-])o1)c1ccc(C2CCCCC2)cc1 | 122 | – | – | – | > 10 | – | – | > 10 | > 10 | 3.33 (≈ 1.08 µg/mL) | > 10 | 0.81 (≈ 0.264 µg/mL) | – |
| C[C@@H]1[C@H](O)[C@@H](C)/C=C/C=C/C=C/C=C/C=C/C=C/C=C/[C@H](O[C@@H]2O[C@H](C)[C@@H](O)[C@H](N)[C@@H]2O)C[C@@H]2O[C@](O)(C[C@@H](O)C[C@@H](O)[C@H](O)CC[C@@H](O)C[C@@H](O)CC(=O)O[C@H]1C)C[C@H](O)[C@H]2C(=O)O [AMPHOTERICIN B] | – | – | – | – | – | – | – | – | < 0.004 | – | – | – | – |
| O=C(/C=C/c1ccc([N+](=O)[O-])s1)c1ccc(N2CCOCC2)cc1 | – | > 10 | > 10 | > 10 | > 10 | 8.27 (≈ 2.85 µg/mL) | > 10 | > 10 | > 10 | > 10 | > 10 | > 10 | – |
| CO[C@H]1/C=C/O[C@@]2(C)Oc3c(C)c(O)c4c(O)c(c(/C=N/N5CCN(C)CC5)c(O)c4c3C2=O)NC(=O)/C(C)=C\C=C\[C@H](C)[C@H](O)[C@@H](C)[C@@H](O)[C@@H](C)[C@H](OC(C)=O)[C@@H]1C [RIFAMPIN] | – | – | – | – | – | – | – | – | – | 0.19 (≈ 0.156 µg/mL) | > 10 | 0.05 (≈ 0.0411 µg/mL) | 2000 |
